Measurements reported in US10800770B1, “Chroman derivatives having estrogen receptor degradation activity and uses thereof” (ACCUTAR BIOTECHNOLOGY INC., priority 2019, dated 2020).

target: T1, ERα (Homo sapiens, UniProt P03372); experiment: ERα degradative activity in T47D cells (Western blot, 6 hours after administration); assay type: cell-based; conditions: T47D cell line, ERα degradation
T1 construct: endogenous in cells; host or cells: T47D
T1 sequence (P03372 1-595): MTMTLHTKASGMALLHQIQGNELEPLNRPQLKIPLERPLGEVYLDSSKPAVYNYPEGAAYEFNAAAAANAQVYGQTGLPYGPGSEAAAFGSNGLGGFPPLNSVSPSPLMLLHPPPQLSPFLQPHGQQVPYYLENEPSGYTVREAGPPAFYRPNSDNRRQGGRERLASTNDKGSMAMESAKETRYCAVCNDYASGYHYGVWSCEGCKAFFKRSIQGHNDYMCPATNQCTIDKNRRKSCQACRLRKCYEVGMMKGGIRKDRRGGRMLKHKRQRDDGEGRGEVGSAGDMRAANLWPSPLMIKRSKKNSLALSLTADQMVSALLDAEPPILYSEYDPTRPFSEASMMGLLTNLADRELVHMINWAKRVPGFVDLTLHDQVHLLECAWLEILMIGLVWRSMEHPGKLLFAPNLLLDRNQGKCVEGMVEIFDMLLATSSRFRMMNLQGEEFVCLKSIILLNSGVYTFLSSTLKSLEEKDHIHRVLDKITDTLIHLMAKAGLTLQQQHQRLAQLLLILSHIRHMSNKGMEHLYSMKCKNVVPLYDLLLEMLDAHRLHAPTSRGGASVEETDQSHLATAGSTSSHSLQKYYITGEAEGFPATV
Method: T47D cells were plated in 24-well plates at 1.5×10^5 cells/well in the RPMI growth medium containing 10% FBS and 1× Penicillin Streptomycin. MCF7 cells were plated in 24-well plates at 1.5×10^5 cells/well in the DMEM growth medium containing 10% FBS and 1× Penicillin Streptomycin. CAMA1 cells were plated in 24-well plates at 2×10^5 cells/well in the RPMI growth medium containing 20% FBS and 1× Penicillin Streptomycin. They were then incubated at 37° C. overnight. The following day, the test compound was administered to the cells by using 1000× compound stock solution prepared in DMSO at various concentrations. After administration of the compound, the cells were then incubated at 37° C. for 6 hours.
Upon completion, the cells were washed with PBS and protein was collected in Laemmli sample buffer (1×; VWR International). Proteins in cell lysate were separated by SDS-PAGE and transferred to Odyssey nitrocellulose membranes (Licor) with Iblot® dry blotting transfer system (ThermoFisher). Nonspecific binding was blocked by incubating membranes with Intercept Blocking Buffer (Licor) for 1 hour at room temperature with gentle shaking. The membranes were then incubated overnight at 4° C. with Primary antibodies rabbit anti-ER (Cell Signaling, 8644) and mouse anti-GAPDH (1:5,000, Santa Cruz Biotechnology, sc-47724) diluted in Intercept Blocking Buffer containing 0.1% Tween 20. After washing 3 times with TBS-T, the membranes were incubated with IRDye® 800CW goat anti-mouse IgG (1:20,000, Licor) or IRDye® 800CW goat anti-rabbit IgG (1:20,000, Licor) for 1 hour. After TBS-T washes, membranes were rinsed in TBS and scanned on Odyssey® CLx Imaging System (Licor). The bands were quantified using Image Studio™ Software (Licor).

SMILES | DC50 [nM]
Cc1cccc([C@H]2COc3cc(O)ccc3C2c2ccc(N3CCC(CN4CCN(c5ccc6c(c5)CN([C@H]5CCC(=O)NC5=O)C6=O)CC4)CC3)c(F)c2)c1 (relative stereo) [Compound 52, cis-(S)-3-(5-(4-((1-(2-fluoro-4-(7-hydroxy-3-(m-tolyl)chroman-4-yl)phenyl)piperidin-4-yl)methyl)piperazin-1-yl)-1-oxoisoindolin-2-yl)piperidine-2,6-dione] | 5.6
COc1cccc([C@H]2COc3cc(O)ccc3[C@H]2c2ccc(N3CCC(CN4CCN(c5cc6c(cc5F)C(=O)N([C@H]5CCC(=O)NC5=O)C6)CC4)CC3)cc2)c1 (relative stereo) [Compound 74, cis-(S)-3-(6-fluoro-5-(4-((1-(4-(7-hydroxy-3-(3-methoxy-phenyl)chroman-4-yl)phenyl)piperidin-4-yl)methyl)piperazin-1-yl)-1-oxoisoindolin-2-yl)piperidine-2,6-dione] | 7.3
O=C1CC[C@H](N2Cc3cc(N4CCN(CC5CCN(c6ccc([C@@H]7c8ccc(O)cc8OCC7c7ccc(F)c(F)c7)cc6F)CC5)CC4)ccc3C2=O)C(=O)N1 (relative stereo) [Compound 84, cis-(S)-3-(5-(4-((1-(4-(3-(3,4-difluorophenyl)-7-hydroxychroman-4-yl)-2-fluoro-phenyl)piperidin-4-yl)methyl)piperazin-1-yl)-1-oxoisoindolin-2-yl)piperidine-2,6-dione] | 9.3
COc1ccc(C2COc3cc(O)ccc3[C@H]2c2ccc(N3CCC(CN4CCN(c5cc6c(cc5F)C(=O)N([C@H]5CCC(=O)NC5=O)C6)CC4)CC3)cc2)cc1 (relative stereo) [Compound 90, cis-(S)-3-(6-fluoro-5-(4-((1-(4-(7-hydroxy-3-(4-methoxy-phenyl)chroman-4-yl)phenyl)piperidin-4-yl)methyl)piperazin-1-yl)-1-oxoisoindolin-2-yl)piperidine-2,6-dione] | 9.6
O=C1CCC(N2C(=O)c3ccc(N4CCN(CC5CCN(c6ccc(C7c8ccc(O)cc8OC[C@@H]7c7ccccc7)cc6)CC5)CC4)cc3C2=O)C(=O)N1 (stereo in doubt) [Compound 36, cis-2-(2,6-dioxopiperidin-3-yl)-5-(4-((1-(4-(7-hydroxy-3-phenylchroman-4-yl)phenyl)piperidin-4-yl)methyl)piperazin-1-yl)isoindoline-1,3-dione] | > 10
O=C1CC[C@H](N2C(=O)c3ccc(N4CCN(CC5CCN(c6ccc([C@@H]7c8ccc(O)cc8OCC7c7ccccc7)cc6F)CC5)CC4)cc3C2=O)C(=O)N1 (stereo in doubt) [Compound 87, cis-2-(2,6-dioxo-piperidin-3-yl)-5-(4-((1-(2-fluoro-4-(7-hydroxy-3-phenylchroman-4-yl)phenyl)piperidin-4-yl)methyl)piperazin-1-yl)isoindoline-1,3-dione] | 12.6
O=C1CC[C@H](N2Cc3cc(N4CCN(CC5CCN(c6ccc([C@H]7c8ccc(O)cc8OC[C@H]7c7ccccc7)cc6)CC5)CC4)ccc3C2=O)C(=O)N1 [Compound 34, (S)-3-(5-(4-((1-(4-((3R,4S)-7-hydroxy-3-phenylchroman-4-yl)phenyl)piperidin-4-yl)methyl)piperazin-1-yl)-1-oxoisoindolin-2-yl)piperidine-2,6-dione] | > 100
O=C1CC[C@H](N2Cc3cc(N4CCN(CC5CCN(c6ccc([C@@H]7c8ccc(O)cc8OC[C@@H]7c7ccccc7)cc6F)CC5)CC4)c(F)cc3C2=O)C(=O)N1 [Compound 41, (S)-3-(6-fluoro-5-(4-((1-(2-fluoro-4-((3S,4R)-7-hydroxy-3-phenylchroman-4-yl)phenyl)piperidin-4-yl)methyl)piperazin-1-yl)-1-oxoisoindolin-2-yl)piperidine-2,6-dione] | 4
O=C1CC[C@H](N2Cc3cc(N4CCN(CC5CCN(c6ccc([C@H]7c8ccc(O)cc8OC[C@H]7c7ccccc7)cc6F)CC5)CC4)ccc3C2=O)C(=O)N1 [Compound 45, (S)-3-(5-(4-((1-(2-fluoro-4-((3R,4S)-7-hydroxy-3-phenylchroman-4-yl)phenyl)piperidin-4-yl)methyl)piperazin-1-yl)-1-oxoisoindolin-2-yl)piperidine-2,6-dione] | > 100
Cc1cc([C@H]2COc3cc(O)ccc3[C@H]2c2ccc(N3CCC(CN4CCN(c5ccc6c(c5)CN([C@H]5CCC(=O)NC5=O)C6=O)CC4)CC3)c(F)c2)ccc1F [Compound 60, cis-(S)-3-(5-(4-((1-(2-fluoro-4-(3-(4-fluoro-3-methylphenyl)-7-hydroxychroman-4-yl)phenyl)piperidin-4-yl)methyl)piperazin-1-yl)-1-oxoisoindolin-2-yl)piperidine-2,6-dione] | 6.5

Compounds with a lower DC50, results first:

DC50 [nM] | SMILES
2.4 | O=C1CC[C@H](N2Cc3cc(N4CCN(CC5CCN(c6ccc(C7c8ccc(O)cc8OC[C@@H]7c7ccccc7)cc6)CC5)CC4)ccc3C2=O)C(=O)N1 (relative stereo) [Compound 32, cis-(S)-3-(5-(4-((1-(4-(7-hydroxy-3-phenylchroman-4-yl)phenyl)piperidin-4-yl)methyl)piperazin-1-yl)-1-oxoisoindolin-2-yl)piperidine-2,6-dione]
1.7 | COc1cccc([C@H]2COc3cc(O)ccc3C2c2ccc(N3CCC(CN4CCN(c5ccc6c(c5)CN([C@H]5CCC(=O)NC5=O)C6=O)CC4)CC3)cc2)c1 (relative stereo) [Compound 56, cis-(S)-3-(5-(4-((1-(4-(7-hydroxy-3-(3-methoxy-phenyl)chroman-4-yl)phenyl)piperidin-4-yl)methyl)piperazin-1-yl)-1-oxoisoindolin-2-yl)piperidine-2,6-dione]
2.1 | COc1cc([C@H]2COc3cc(O)ccc3[C@H]2c2ccc(N3CCC(CN4CCN(c5ccc6c(c5)CN([C@H]5CCC(=O)NC5=O)C6=O)CC4)CC3)cc2)ccc1F (relative stereo) [Compound 63, cis-(S)-3-(5-(4-((1-(4-(3-(4-fluoro-3-methoxyphenyl)-7-hydroxychroman-4-yl)phenyl)piperidin-4-yl)methyl)piperazin-1-yl)-1-oxoisoindolin-2-yl)piperidine-2,6-dione]
3 | O=C1CC[C@H](N2Cc3cc(N4CCN(CC5CCN(c6ccc([C@@H]7c8ccc(O)cc8OCC7c7ccccc7)cc6F)CC5)CC4)ccc3C2=O)C(=O)N1 (relative stereo) [Compound 85, cis-(S)-3-(5-(4-((1-(2-fluoro-4-(7-hydroxy-3-phenylchroman-4-yl)phenyl)piperidin-4-yl)methyl)piperazin-1-yl)-1-oxoisoindolin-2-yl)piperidine-2,6-dione]
0.7 | COc1ccc(C2COc3cc(O)ccc3[C@H]2c2ccc(N3CCC(CN4CCN(c5ccc6c(c5)CN([C@H]5CCC(=O)NC5=O)C6=O)CC4)CC3)cc2)cc1 (relative stereo) [Compound 89, cis-(S)-3-(5-(4-((1-(4-(7-hydroxy-3-(4-methoxy-phenyl)chroman-4-yl)phenyl)piperidin-4-yl)methyl)piperazin-1-yl)-1-oxoisoindolin-2-yl)piperidine-2,6-dione]
0.3 | O=C1CC[C@H](N2Cc3cc(N4CCN(CC5CCN(c6ccc([C@@H]7c8ccc(O)cc8OC[C@@H]7c7ccccc7)cc6)CC5)CC4)ccc3C2=O)C(=O)N1 [Compound 33, (S)-3-(5-(4-((1-(4-((3S,4R)-7-hydroxy-3-phenylchroman-4-yl)phenyl)piperidin-4-yl)methyl)piperazin-1-yl)-1-oxoisoindolin-2-yl)piperidine-2,6-dione]
1.1 | O=C1CC[C@H](N2Cc3cc(N4CCN(CC5CCN(c6ccc([C@@H]7c8ccc(O)cc8OC[C@@H]7c7ccccc7)cc6)CC5)CC4)c(F)cc3C2=O)C(=O)N1 [Compound 42, (S)-3-(6-fluoro-5-(4-((1-(4-((3S,4R)-7-hydroxy-3-phenylchroman-4-yl)phenyl)piperidin-4-yl)methyl)piperazin-1-yl)-1-oxoisoindolin-2-yl)piperidine-2,6-dione]
0.5 | O=C1CC[C@H](N2Cc3cc(N4CCN(CC5CCN(c6ccc([C@@H]7c8ccc(O)cc8OC[C@@H]7c7ccccc7)cc6F)CC5)CC4)ccc3C2=O)C(=O)N1 [Compound 86, (S)-3-(5-(4-((1-(2-fluoro-4-((3S,4R)-7-hydroxy-3-phenylchroman-4-yl)phenyl)piperidin-4-yl)methyl)piperazin-1-yl)-1-oxoisoindolin-2-yl)piperidine-2,6-dione]
